Measurements taken from DBAASP.
Converted amounts (≈) assume the structure as drawn. “And” between values parts separate entries of the source, which are not always exact repeats. Equal values may be shown once. Blank lines part the entries; values can stand above or below the compound they belong to.

Key:
Assay in all cases: ≥ marks a high value that may be exact or a test limit, other limits are often not marked, values filed in µg/mL are converted to µM
[1] = test system: Escherichia coli ATCC 35218
[2] = test system: Staphylococcus aureus ATCC 25325
[3] = test system: Pseudomonas aeruginosa ATCC 27853
[4] = test system: Enterococcus faecalis ATCC 29212
[5] = test system: Pseudomonas aeruginosa CGMCC 1.860
[6] = test system: Staphylococcus aureus AS1.72
[7] = test system: Lactococcus lactis AS1.1690
[8] = test system: Fusobacterium nucleatum CGMCC 1.2526
[9] = test system: Klebsiella aerogenes CGMCC 1.876
[10] = test system: Streptococcus mutans CGMCC 1.2500
[11] = test system: Enterococcus faecalis CGMCC 1.595
[12] = test system: Streptococcus sanguinis CGMCC 1.2497
[13] = test system: Klebsiella pneumoniae subsp. pneumoniae CGMCC 1.176
[14] = test system: Bacillus cereus AS1.126
[15] = test system: Streptococcus salivarius CGMCC 1.2498
[16] = test system: Candida albicans CMCC 98001
[17] = test system: Enterococcus faecium CGMCC 1.2334
[18] = test system: Enterobacter cloacae CGMCC 1.58
[19] = test system: Escherichia coli AS1.349
[20] = test system: Lactobacillus acidophilus CGMCC 1.1854
[21] = test system: Bacillus anthracis Sterne 34F2
[22] = test system: Bacillus subtilis ATCC 9372
[23] = test system: Burkholderia thailandensis
[24] = test system: Staphylococcus aureus ATCC BAA-44
[25] = test system: Klebsiella pneumoniae KP2
[26] = test system: Staphylococcus aureus 4003
[27] = test system: Staphylococcus aureus NRS 846
[28] = test system: Staphylococcus aureus NRS 1
[29] = test system: Pseudomonas aeruginosa TRPA 111
[30] = test system: Staphylococcus aureus RN4220
[31] = test system: Staphylococcus aureus USA 100
[32] = test system: Staphylococcus epidermidis NRS 101
[33] = test system: Staphylococcus aureus ATCC 6538
[34] = test system: Acinetobacter baumannii
[35] = test system: Klebsiella pneumoniae KP4
[36] = test system: Pseudomonas aeruginosa TRPA 108
[37] = test system: Acinetobacter baumannii AB1
[38] = test system: Klebsiella pneumoniae KP1
[39] = test system: Acinetobacter baumannii AB2
[40] = test system: Staphylococcus aureus USA 400
[41] = test system: Staphylococcus aureus VRSA4
[42] = test system: Acinetobacter baumannii AB3
[43] = test system: Klebsiella pneumoniae KP3
[44] = test system: Pseudomonas aeruginosa
[45] = test system: Staphylococcus aureus ATCC 43300
[46] = test system: Pseudomonas aeruginosa H103
[47] = test system: Mycobacterium tuberculosis WXY
[48] = test system: Pseudomonas aeruginosa PAO1
[49] = test system: Escherichia coli
[50] = test system: Staphylococcus aureus
[51] = test system: Staphylococcus aureus ATCC 25923
[52] = test system: Salmonella enterica serovar Typhimurium
[53] = test system: Escherichia coli ATCC 25922
[54] = test system: Mycobacterium tuberculosis CAS3
[55] = test system: Mycobacterium tuberculosis H37Rv
[56] = test system: Mycobacterium tuberculosis FYX

Structure (SMILES): CC(C)[C@H](NC(=O)[C@H](Cc1cnc[nH]1)NC(=O)[C@H](C)NC(=O)[C@H](C)NC(=O)[C@H](CCCCN)NC(=O)[C@H](CCCCN)NC(=O)[C@H](Cc1ccccc1)NC(=O)[C@H](Cc1ccccc1)NC(=O)[C@H](CO)NC(=O)CNC(=O)[C@H](Cc1c[nH]c2ccccc12)NC(=O)CN)C(=O)NCC(=O)O [GWGSFFKKAAHVG]
- MIC [1]: ≥ 43.6 µM
- MIC [2]: ≥ 58 µM
- MIC [3]: 52 µM (≈ 72.4 µg/mL)
- MIC [4]: 57 µM (≈ 79.3 µg/mL)

Structure (SMILES): CC[C@H](C)[C@H](N)C(=O)N[C@@H](CCCCN)C(=O)N[C@@H](CCCCN)C(=O)N[C@H](C(=O)N[C@H](C(=O)N[C@@H](CO)C(=O)N[C@@H](CCCCN)C(=O)N[C@H](C(=O)N[C@@H](CCCCN)C(=O)N[C@@H](CCCCN)C(=O)N[C@H](C(=O)N[C@@H](CC(C)C)C(=O)N[C@@H](CCCCN)C(N)=O)C(C)C)[C@@H](C)CC)C(C)C)[C@@H](C)CC [IKKIVSKIKKVLK]
- MIC [5]: 6.25 µM (≈ 9.53 µg/mL)
- MIC [6]: 6.25 µM (≈ 9.53 µg/mL)
- MIC [7]: 3.12 µM (≈ 4.76 µg/mL)
- MIC [8]: 6.25 µM (≈ 9.53 µg/mL)
- MIC [9]: 7.81 µM (≈ 11.9 µg/mL)
- MIC [10]: 6.25 µM (≈ 9.53 µg/mL)
- MIC [11]: 7.81 µM (≈ 11.9 µg/mL)
- MIC [12]: 6.25 µM (≈ 9.53 µg/mL)
- MIC [13]: 6.25 µM (≈ 9.53 µg/mL)
- MIC [14]: 3.12 µM (≈ 4.76 µg/mL)
- MIC [15]: 6.25 µM (≈ 9.53 µg/mL)
- MIC [16]: 6.25 µM (≈ 9.53 µg/mL)
- MIC [17]: 7.81 µM (≈ 11.9 µg/mL)
- MIC [18]: 7.81 µM (≈ 11.9 µg/mL)
- MIC [19]: 6.25 µM (≈ 9.53 µg/mL)
- MIC [20]: 6.25 µM (≈ 9.53 µg/mL)

Structure (SMILES): CSCC[C@H](NC(=O)[C@@H](NC(=O)[C@H](CC(N)=O)NC(C)=O)C(C)C)C(=O)N[C@H](C(=O)N[C@@H](Cc1ccc(O)cc1)C(=O)N[C@@H](Cc1c[nH]c2ccccc12)C(=O)N[C@@H](Cc1c[nH]c2ccccc12)C(=O)N[C@@H](CC(C)C)C(=O)N[C@@H](CC(=O)O)C(=O)N1CCC[C@H]1C(=O)N1CCC[C@H]1C(=O)N[C@@H](CC(C)C)C(N)=O)[C@@H](C)O [NVMTYWWLDPPL]
- MIC [21]: ≥ 100 µM
- MIC [22]: ≥ 100 µM
- MIC [23]: ≥ 50 µM

Continued, values first:

- MIC [24]: 4 µM (≈ 8.29 µg/mL)
- MIC [25]: 15.4 µM (≈ 32 µg/mL)
- MIC [26]: 1.45 µM (≈ 3 µg/mL)
- MIC [27]: 16 µM (≈ 33.2 µg/mL)
- MIC [28]: 1 µM (≈ 2.07 µg/mL)
- MIC [29]: 1.45 µM (≈ 3 µg/mL)
- MIC [30]: 2 µM (≈ 4.14 µg/mL)
- MIC [31]: 3.38 µM (≈ 7 µg/mL)
- MIC [32]: 4 µM (≈ 8.29 µg/mL)
- MIC [33]: 4 µM (≈ 8.29 µg/mL)
- MIC [34]: 2.7 µM (≈ 5.6 µg/mL)
- MIC [35]: 15.4 µM (≈ 32 µg/mL)
- MIC [36]: 1.93 µM (≈ 4 µg/mL)
- MIC [37]: 2.41 µM (≈ 5 µg/mL)
- MIC [38]: 13 µM (≈ 27 µg/mL)
- MIC [39]: 1.45 µM (≈ 3 µg/mL)
- MIC [40]: 2 µM (≈ 4.14 µg/mL)
- MIC [41]: 5.66 µM (≈ 11.7 µg/mL)
- MIC [42]: 5.31 µM (≈ 11 µg/mL)
- MIC [43]: 15.4 µM (≈ 32 µg/mL)
- MIC [44]: 3.3 µM (≈ 6.84 µg/mL)
- MIC [45]: 2 µM (≈ 4.14 µg/mL)
Structure (SMILES): NC(N)=NCCC[C@H](NC(=O)[C@H](CCCN=C(N)N)NC(=O)[C@H](Cc1c[nH]c2ccccc12)NC(=O)[C@H](Cc1c[nH]c2ccccc12)NC(=O)[C@H](CCCN=C(N)N)NC(=O)[C@H](CCCN=C(N)N)NC(=O)[C@H](Cc1c[nH]c2ccccc12)NC(=O)[C@H](Cc1c[nH]c2ccccc12)NC(=O)[C@H](CCCN=C(N)N)NC(=O)[C@H](Cc1c[nH]c2ccccc12)NC(=O)[C@H](Cc1c[nH]c2ccccc12)NC(=O)[C@@H](N)CCCN=C(N)N)C(=O)O [RWWRWWRRWWRR]

- MIC [46]: ≥ 53.8 µM
- MIC [47]: 13.5 µM (≈ 18.7 µg/mL)
- MIC [48]: 91.8 µM (≈ 128 µg/mL)
- MIC [34]: ≥ 45.9 µM
- MIC [49]: 64.9 µM (≈ 90.4 µg/mL)
- MIC [50]: 64.9 µM (≈ 90.4 µg/mL)
- MIC [51]: 27.3 µM and 45.9 µM
- MIC [52]: 23 µM (≈ 32 µg/mL)
- MIC [53]: 23 µM (≈ 32 µg/mL)
- MIC [54]: ≥ 53.8 µM
- MIC [55]: 21 µM and 26.9 µM
- MIC [56]: 26.9 µM (≈ 37.5 µg/mL)
- MIC [44]: 64.9 µM (≈ 90.4 µg/mL)
Structure (SMILES): CC[C@H](C)[C@H](NC(=O)[C@H](CCCN=C(N)N)NC(=O)[C@H](CC(C)C)NC(=O)[C@H](CCC(N)=O)NC(=O)[C@@H](N)C(C)C)C(=O)N[C@@H](CCCN=C(N)N)C(=O)N[C@H](C(=O)N[C@@H](C)C(=O)N[C@H](C(=O)N[C@H](C(=O)N[C@@H](CCCN=C(N)N)C(=O)N[C@@H](C)C(N)=O)[C@@H](C)CC)C(C)C)C(C)C [VQLRIRVAVIRA]
